Usually inhibition stands for the share of the control response that was lost under treatment.

The target of the first test is T1, NPM-ALK-BaF3 (Homo sapiens, UniProt Q9UM73).
T1 construct: NPM (nuclear phosphoprotein / nucleophosmin, NPM1, P06748) fusion partner; expressed in transfected cells; host or cells: BaF3; the other entry of the earlier key: NPM1 (P06748, Nucleophosmin)
T1 sequence (Q9UM73 with tags, fused parts or gaps): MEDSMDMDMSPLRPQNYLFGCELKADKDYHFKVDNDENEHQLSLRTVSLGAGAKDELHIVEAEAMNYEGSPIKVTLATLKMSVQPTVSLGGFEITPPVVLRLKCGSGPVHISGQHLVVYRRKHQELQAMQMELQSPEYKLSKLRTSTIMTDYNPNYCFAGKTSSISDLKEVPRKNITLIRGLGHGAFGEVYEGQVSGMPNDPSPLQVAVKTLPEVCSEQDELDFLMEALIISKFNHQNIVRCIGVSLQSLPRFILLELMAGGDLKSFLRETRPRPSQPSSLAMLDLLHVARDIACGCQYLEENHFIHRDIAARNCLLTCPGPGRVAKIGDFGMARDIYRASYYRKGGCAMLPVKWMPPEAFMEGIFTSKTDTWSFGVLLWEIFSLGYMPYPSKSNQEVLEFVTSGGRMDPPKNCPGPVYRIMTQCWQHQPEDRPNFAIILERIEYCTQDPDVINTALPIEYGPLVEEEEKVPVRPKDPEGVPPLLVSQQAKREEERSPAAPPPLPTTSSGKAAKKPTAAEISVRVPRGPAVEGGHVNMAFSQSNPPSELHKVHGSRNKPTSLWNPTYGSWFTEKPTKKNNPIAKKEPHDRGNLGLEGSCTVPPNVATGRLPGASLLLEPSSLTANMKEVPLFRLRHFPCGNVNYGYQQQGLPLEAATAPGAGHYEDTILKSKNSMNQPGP
Description: Growth inhibition of BaF3 cells stably transfected with kinase NPM-ALK (MTS). Format: cell-based. The settings on record: compound concentration 3.3 μM, read-out: cell growth inhibition rate, NPM-ALK. The method, then: (§1) The specific test method is given as follows:
(§2) 2) Reagent: MTS reaction solution (containing 2 mg/mL of MTS [3-(4,5-dimethylthiazol-2-yl)-5-(3-carboxymethoxyphenyl)-2-(4-sulfophenyl)-2H-tetra zolium, inner Salt]; 100 µg/mL PES ([…])).
Turning to `COc1cc(C2CCN(C)CC2)c(C)cc1Nc1nc(Nc2ccccc2S(C)(=O)=O)c2sccc2n1` [IA-5], the inhibition at 3.3 µM was 90.9%. Still for that read-out and setting: next, `CC(C)S(=O)(=O)c1ccccc1Nc1nc(Nc2ccc(N3CCN(C)CC3)cc2)nc2ccsc12` [IB-3]: 94.2%.

In the case of `CC(C)S(=O)(=O)c1ccccc1Nc1nc(Nc2ccc(N3CCC(O)CC3)cc2)nc2ccsc12` [IB-4], the inhibition at 3.3 µM stood at 96%.

As for `COc1cc(C2CCN(C)CC2)c(C)cc1Nc1nc(Nc2ccccc2S(=O)(=O)C(C)C)c2sccc2n1` [IB-5], the inhibition at 3.3 µM stood at 88.9%. Same read-out and setting: next, `CC(C)S(=O)(=O)c1ccccc1Nc1nc(Nc2ccc(N3CCC(N4CCN(C)CC4)CC3)cc2)nc2ccsc12` [IB-6]: 93.2%; `COc1cc(N2CCC(N3CCCC3)CC2)ccc1Nc1nc(Nc2ccccc2S(=O)(=O)C(C)C)c2sccc2n1` [IB-7]: 92.8%.

On to `COc1cc(N2CCN(C)CC2)ccc1Nc1nc(Nc2ccccc2S(=O)(=O)C(C)C)c2sccc2n1` [IB-8], for which the inhibition at 3.3 µM was found to be 83.7%.

As to `Cc1cc(Nc2nc(Nc3ccccc3S(=O)(=O)C(C)C)c3sccc3n2)c(OC(C)C)cc1C1CCN(C)CC1` [IB-9], the inhibition at 3.3 µM was 88.5%. The same measure, in the same setting: next, `CC(C)S(=O)(=O)c1ccccc1Nc1nc(Nc2ccc(S(=O)(=O)N3CCC(O)CC3)cc2)nc2ccsc12` [IB-11]: 60.9%; `CC(C)S(=O)(=O)c1ccccc1Nc1nc(Nc2ccc(N3CCC(O)CC3)cn2)nc2ccsc12` [IB-12]: 55.9%; `CCOc1cc(C(=O)N2CCC(N3CCN(C)CC3)CC2)ccc1Nc1nc(Nc2ccccc2S(=O)(=O)C(C)C)c2sccc2n1` [IB-13]: 90.3%. The same measure, in the same setting: for `CC(C)S(=O)(=O)c1ccccc1Nc1nc(Nc2ccc(N3CCOCC3)cc2)nc2ccsc12` [IB-15] the value was 83.3%; for `CC(C)S(=O)(=O)c1ccccc1Nc1nc(Nc2ccc(N3CCOCC3)nc2)nc2ccsc12` [IB-16], 77.5%; for `CCOc1cc(N2CCC(O)CC2)ccc1Nc1nc(Nc2ccccc2S(=O)(=O)C(C)C)c2sccc2n1` [IB-17], 86%. With `CC(C)Oc1cc(N2CCC(O)CC2)ccc1Nc1nc(Nc2ccccc2S(=O)(=O)C(C)C)c2sccc2n1` [IB-18], the inhibition at 3.3 µM came out at 66.1%.

Regarding `COc1cc(N2CCC(O)CC2)ccc1Nc1nc(Nc2ccccc2S(=O)(=O)C(C)C)c2sccc2n1` [IB-19], the inhibition at 3.3 µM was 84.9%. `CC(C)S(=O)(=O)c1ccccc1Nc1nc(Nc2ccc(OCc3ccccn3)cc2)nc2ccsc12` [IB-20]: the inhibition at 3.3 µM turned out to be 66%. On the same count and under the same terms, next, `CC(C)S(=O)(=O)c1ccccc1Nc1nc(Nc2ccc(S(=O)(=O)N3CCN(C)CC3)cc2)nc2ccsc12` [IB-21]: 72.1%; `COc1cc(C(=O)N2CCC(N3CCN(C)CC3)CC2)ccc1Nc1nc(Nc2ccccc2S(=O)(=O)C(C)C)c2sccc2n1` [IB-22]: 87.3%; `CC(C)S(=O)(=O)c1ccccc1Nc1nc(Nc2ccc(N3CCC(O)CC3)nc2)nc2ccsc12` [IB-23]: 96.7%. On the same count and under the same terms, for `CC(C)S(=O)(=O)c1ccccc1Nc1nc(Nc2ccc(N3CCN(C)CC3)cn2)nc2ccsc12` [IB-24] the value was 97.4%; for `CC(C)S(=O)(=O)c1ccccc1Nc1nc(Nc2ccc(N3CCN(C(=O)OC(C)(C)C)CC3)cc2)nc2ccsc12` [IB-25], 61.4%. On the same count and under the same terms, for `CC(C)S(=O)(=O)c1ccccc1Nc1nc(Nc2ccc(C(=O)N3CCN(C)CC3)cc2)nc2ccsc12` [IB-26] the value was 97.3%; for `CCOc1cc(N2CCN(C)CC2)ccc1Nc1nc(Nc2ccccc2S(=O)(=O)C(C)C)c2sccc2n1` [IB-28], 96.5%; for `CC(C)S(=O)(=O)c1ccccc1Nc1nc(Nc2ccc(C(=O)N3CCC(N4CCN(C)CC4)CC3)cc2)nc2ccsc12` [IB-29], 97.5%. In the case of `COc1cc2c(cc1Nc1nc(Nc3cn(C)nc3S(=O)(=O)C(C)C)c3sccc3n1)N(C(=O)CN(C)C)CC2` [IC-1], the inhibition at 3.3 µM amounted to 82.4%. On the same count and under the same terms, next, `COc1cc(N2CCC(N3CCN(C)CC3)CC2)ccc1Nc1nc(Nc2cn(C)nc2S(=O)(=O)C(C)C)c2sccc2n1` [IC-2]: 55%. With `CC(C)S(=O)(=O)c1nn(C)cc1Nc1nc(Nc2ccc(N3CCN(C)CC3)cc2)nc2ccsc12` [IC-3], the inhibition at 3.3 µM was determined as 46.5%.

In the case of `CC(C)S(=O)(=O)c1nn(C)cc1Nc1nc(Nc2ccc(N3CCC(O)CC3)cc2)nc2ccsc12` [IC-4], the inhibition at 3.3 µM was found to be 53.2%. The same measure, in the same setting: for `COC(=O)c1cccc(Nc2nc(Nc3cc4c(cc3OC)CCN4C(=O)CN(C)C)nc3ccsc23)c1` [ID-1] the value was 73.4%. `COC(=O)c1cccc(Nc2nc(Nc3ccc(N4CCN(C)CC4)cc3OC)nc3ccsc23)c1` [ID-2]: the inhibition at 3.3 µM came out at 44.7%. Same read-out and setting: next, `COc1cc2c(cc1Nc1nc(Nc3cccc(NS(C)(=O)=O)c3)c3sccc3n1)N(C(=O)CN(C)C)CC2` [IG-1]: 22.2%. The same measure, in the same setting: for `COc1cc(N2CCC(N3CCN(C)CC3)CC2)ccc1Nc1nc(Nc2cccc(NS(C)(=O)=O)c2)c2sccc2n1` [IG-2] the value was 17.4%. In the case of `CS(=O)(=O)Nc1cccc(Nc2nc(Nc3ccc(N4CCC(O)CC4)cc3)nc3ccsc23)c1` [IG-3], the inhibition at 3.3 µM came out at 21.6%. The same measure, in the same setting: next, `CS(=O)(=O)Nc1cccc(Nc2nc(Nc3ccc(S(N)(=O)=O)cc3)nc3ccsc23)c1` [IG-6]: 3.07%. Still for that read-out and setting: for `COc1cc2c(cc1Nc1nc(Nc3ccccc3NS(C)(=O)=O)c3sccc3n1)N(C(=O)CN(C)C)CC2` [IH-1] the value was 12.7%; for `COc1cc(N2CCC(N3CCN(C)CC3)CC2)ccc1Nc1nc(Nc2ccccc2NS(C)(=O)=O)c2sccc2n1` [IH-2], 85.1%; for `COc1cc(N2CCN(C)CC2)ccc1Nc1nc(Nc2ccccc2NS(C)(=O)=O)c2sccc2n1` [IH-3], 79.2%. On the same count and under the same terms, for `CS(=O)(=O)Nc1ccccc1Nc1nc(Nc2ccc(N3CCC(O)CC3)cc2)nc2ccsc12` [IH-4] the value was 26.7%; for `CS(=O)(=O)Nc1ccccc1Nc1nc(Nc2ccc(S(N)(=O)=O)cc2)nc2ccsc12` [IH-7], 15.1%; for `CNC(=O)c1ccccc1Nc1nc(Nc2ccc(N3CCC(N4CCN(C)CC4)CC3)cc2OC)nc2ccsc12` [II-1], 46.3%. For the compound `CNC(=O)c1ccccc1Nc1nc(Nc2ccc(N3CCN(C)CC3)cc2)nc2ccsc12` [II-2], the inhibition at 3.3 µM came out at 28.1%. On the same count and under the same terms, for `CNC(=O)c1ccccc1Nc1nc(Nc2ccc(N3CCN(C)CC3)cc2OC)nc2ccsc12` [II-3] the value was 84.1%. On the same count and under the same terms, for `CCOc1cc(N2CCN(C)CC2)ccc1Nc1nc(Nc2ccccc2C(=O)NC)c2sccc2n1` [II-4] the value was 46.6%; for `CNC(=O)c1ccccc1Nc1nc(Nc2ccc(N3CCC(O)CC3)cc2)nc2ccsc12` [II-5], 31.6%; for `COc1cc2c(cc1Nc1nc(NCc3ccccc3S(C)(=O)=O)c3sccc3n1)N(C(=O)CN(C)C)CC2` [IL-1], 73.7%. The same measure, in the same setting: for `COc1cc(N2CCC(N3CCN(C)CC3)CC2)ccc1Nc1nc(NCc2ccccc2S(C)(=O)=O)c2sccc2n1` [IL-2] the value was 54.8%. With `CN1CCN(c2ccc(Nc3nc(NCc4ccccc4S(C)(=O)=O)c4sccc4n3)cc2)CC1` [IL-3], the inhibition at 3.3 µM came to 56.8%. Take `CS(=O)(=O)c1ccccc1CNc1nc(Nc2ccc(N3CCC(O)CC3)cc2)nc2ccsc12` [IL-4]: the inhibition at 3.3 µM came to 45.8%. Still for that read-out and setting: next, `COc1cc2c(cc1Nc1nc(NCc3ccccc3S(=O)(=O)C(C)C)c3sccc3n1)N(C(=O)CN(C)C)CC2` [IM-1]: 94.2%; `COc1cc(N2CCC(N3CCN(C)CC3)CC2)ccc1Nc1nc(NCc2ccccc2S(=O)(=O)C(C)C)c2sccc2n1` [IM-2]: 20.6%. Same read-out and setting: for `CC(C)S(=O)(=O)c1ccccc1CNc1nc(Nc2ccc(N3CCN(C)CC3)cc2)nc2ccsc12` [IM-3] the value was 52.5%; for `CC(C)S(=O)(=O)c1ccccc1CNc1nc(Nc2ccc(N3CCC(O)CC3)cc2)nc2ccsc12` [IM-4], 53.1%.

For a further test, the target named is T2, EML4-ALK-BaF3 (Homo sapiens, UniProt Q9UM73).
T2 construct: EML4 (echinoderm microtubule associated protein like 4, Q9HC35) fusion partner; expressed in transfected cells; host or cells: BaF3; the other entry of the earlier key: EML4 (Q9HC35, Echinoderm microtubule-associated protein-like 4)
T2 sequence (Q9UM73 1058-1620 limits assumed): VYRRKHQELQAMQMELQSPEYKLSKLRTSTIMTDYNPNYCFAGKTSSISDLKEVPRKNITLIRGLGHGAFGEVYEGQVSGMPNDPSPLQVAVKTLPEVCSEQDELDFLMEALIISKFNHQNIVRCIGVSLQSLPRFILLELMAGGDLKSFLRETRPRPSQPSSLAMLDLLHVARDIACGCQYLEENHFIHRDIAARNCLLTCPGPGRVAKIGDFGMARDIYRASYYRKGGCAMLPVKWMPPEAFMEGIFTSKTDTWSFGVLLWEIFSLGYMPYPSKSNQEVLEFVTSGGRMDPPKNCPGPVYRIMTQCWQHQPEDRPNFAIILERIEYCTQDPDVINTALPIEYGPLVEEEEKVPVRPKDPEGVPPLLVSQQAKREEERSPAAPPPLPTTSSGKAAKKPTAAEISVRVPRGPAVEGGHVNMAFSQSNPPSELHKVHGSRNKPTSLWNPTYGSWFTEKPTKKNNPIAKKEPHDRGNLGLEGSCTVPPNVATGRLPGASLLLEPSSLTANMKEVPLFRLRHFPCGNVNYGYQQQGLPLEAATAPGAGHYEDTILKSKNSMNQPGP
Description: Growth inhibition of BaF3 cells stably transfected with kinase EML4-ALK (MTS). Format: cell-based. The settings on record: compound concentration 3.3 μM, read-out: cell growth inhibition rate, EML4-ALK. The procedure: as §1, §2
For the compound `COc1cc(N2CCC(N(C)C)CC2)ccc1Nc1nc(Nc2ccccc2S(=O)(=O)C(C)C)c2sccc2n1` [IB-31], the inhibition at 3.3 µM was found to be 98.1%. On to `COc1ccc(NC(=O)CN(C)C)cc1Nc1nc(Nc2ccccc2S(=O)(=O)C(C)C)c2sccc2n1` [IB-32], for which the inhibition at 3.3 µM came to 95%.

Take `COc1cc2c(cc1Nc1nc(Nc3ccccc3S(=O)(=O)C(C)C)c3sccc3n1)N(C(=O)CN1CCCC1)CC2` [IB-33]: the inhibition at 3.3 µM came out at 98.3%.

For `COc1cc(F)c(NC(=O)CN(C)C)cc1Nc1nc(Nc2ccccc2S(=O)(=O)C(C)C)c2sccc2n1` [IB-35], the inhibition at 3.3 µM amounted to 96.8%.

On to `COc1cc2c(cc1Nc1nc(Nc3ccccc3S(=O)(=O)C(C)(C)C)c3sccc3n1)N(C(=O)CN(C)C)CC2` [IO-1], for which the inhibition at 3.3 µM turned out to be 97.1%.

Regarding `COc1cc(N2CCC(N3CCN(C)CC3)CC2)ccc1Nc1nc(Nc2ccccc2S(=O)(=O)C(C)(C)C)c2sccc2n1` [IO-2], the inhibition at 3.3 µM was 96%.

Take `COc1cc(N2CCN(C)CC2)ccc1Nc1nc(Nc2ccccc2S(=O)(=O)C(C)(C)C)c2sccc2n1` [IO-3]: the inhibition at 3.3 µM was 98.7%. Same read-out and setting: for `COc1cc(N2CCC(N(C)C)CC2)ccc1Nc1nc(Nc2ccccc2S(=O)(=O)C(C)(C)C)c2sccc2n1` [IO-4] the value was 97%; for `COc1cc(N2CCC(N3CCN(C)CC3)CC2)ccc1Nc1nc(Nc2ccccc2C(=O)NC(C)C)c2sccc2n1` [IP-1], 97.4%. As for `COc1cc(N2CCN(C)CC2)ccc1Nc1nc(Nc2ccccc2C(=O)NC(C)C)c2sccc2n1` [IP-2], the inhibition at 3.3 µM is 97.3%.

Source of the values: US11078213B2, “Thienopyrimidine compound, preparation method thereof, pharmaceutical composition and application thereof” (HONGYUN BIOTECH CO., LTD., priority 2016, dated 2021).
